Measurements reported in the NIST ThermoML archive (doi:10.1021/je900542y).
Several values for one entry are separate records, joined by “and”; a condition that tells them apart may be missing. Equal entries are not always repeated. Numbers after ± are expanded uncertainties. Each block holds one compound with its values, some of them ahead of it.

How the values were obtained:
[1] = mn = molality of the nth substance listed, in mol/kg; conditions: 298.15 K, 101 kPa, Liquid
[2] = 298.15 K; 101 kPa; Liquid

SMILES: CC[N+](CC)(CC)CC.[I-] [tetraethylammonium iodide] + O=[N+]([O-])c1ccccc1
mass density ([1]; m1 = 0.0001): 1198.91 ± 0.72 kg/m3
mass density ([1]; m1 = 0.0002): 1198.91 ± 0.72 kg/m3
mass density ([1]; m1 = 0.003538): 1198.97 ± 0.72 kg/m3
mass density ([1]; m1 = 0.007075): 1199.04 ± 0.72 kg/m3
mass density ([1]; m1 = 0.0106): 1199.1 ± 0.72 kg/m3
mass density ([1]; m1 = 0.01415): 1199.17 ± 0.72 kg/m3
mass density ([1]; m1 = 0.01416): 1199.17 ± 0.72 kg/m3
mass density ([1]; m1 = 0.0177): 1199.23 ± 0.72 kg/m3
mass density ([1]; m1 = 0.02119): 1199.29 ± 0.72 kg/m3
mass density ([1]; m1 = 0.02469): 1199.36 ± 0.72 kg/m3 and 1199.35 ± 0.72 kg/m3

mass density ([1]; m2 = 0): 786.38 ± 0.49 kg/m3
SMILES: CO [methanol] + CC[N+](CC)(CC)CC.[I-]

SMILES: CC[N+](CC)(CC)CC.[I-] [tetraethylammonium iodide] + CC#N
mass density ([1]; m1 = 0.0001): 776.01 ± 0.6 kg/m3
mass density ([1]; m1 = 0.0002): 776.02 ± 0.59 kg/m3
mass density ([1]; m1 = 0.00354): 776.16 ± 0.59 kg/m3
mass density ([1]; m1 = 0.003541): 776.16 ± 0.59 kg/m3
mass density ([1]; m1 = 0.007081): 776.32 ± 0.59 kg/m3
mass density ([1]; m1 = 0.007082): 776.32 ± 0.59 kg/m3
mass density ([1]; m1 = 0.01062): 776.47 ± 0.59 kg/m3
mass density ([1]; m1 = 0.01064): 776.46 ± 0.59 kg/m3
mass density ([1]; m1 = 0.01416): 776.63 ± 0.59 kg/m3
mass density ([1]; m1 = 0.01417): 776.61 ± 0.59 kg/m3
mass density ([1]; m1 = 0.0176): 776.77 ± 0.59 kg/m3 and 776.78 ± 0.59 kg/m3
mass density ([1]; m1 = 0.02124): 776.93 ± 0.59 kg/m3
mass density ([1]; m1 = 0.02832): 777.24 ± 0.59 kg/m3

SMILES: CC(C)=O [acetone]
mass density [2]: 783.81 ± 0.5 kg/m3

SMILES: O=[N+]([O-])c1ccccc1 [nitrobenzene] + CC[N+](CC)(CC)CC.[I-]
mass density ([1]; m2 = 0): 1198.91 ± 0.72 kg/m3

SMILES: CC(C)=O [acetone] + CC[N+](CC)(CC)CC.[I-]
mass density ([1]; m2 = 0): 783.81 ± 0.5 kg/m3

SMILES: CC[N+](CC)(CC)CC.[I-] [tetraethylammonium iodide] + CC(C)=O
mass density ([1]; m1 = 0.0001): 783.81 ± 0.5 kg/m3
mass density ([1]; m1 = 0.0002): 783.81 ± 0.5 kg/m3
mass density ([1]; m1 = 0.00536): 784.1 ± 0.5 kg/m3
mass density ([1]; m1 = 0.005361): 784.11 ± 0.5 kg/m3
mass density ([1]; m1 = 0.007105): 784.2 ± 0.49 kg/m3
mass density ([1]; m1 = 0.007106): 784.21 ± 0.49 kg/m3
mass density ([1]; m1 = 0.007107): 784.2 ± 0.49 kg/m3
mass density ([1]; m1 = 0.008909): 784.3 ± 0.5 kg/m3
mass density ([1]; m1 = 0.00891): 784.3 ± 0.5 kg/m3
mass density ([1]; m1 = 0.01242): 784.5 ± 0.49 kg/m3
mass density ([1]; m1 = 0.0142): 784.6 ± 0.49 kg/m3
mass density ([1]; m1 = 0.0177): 784.81 ± 0.49 kg/m3
mass density ([1]; m1 = 0.01771): 784.81 ± 0.49 kg/m3
mass density ([1]; m1 = 0.02114): 784.99 ± 0.49 kg/m3
mass density ([1]; m1 = 0.02115): 785 ± 0.49 kg/m3

SMILES: CC[N+](CC)(CC)CC.[I-] [tetraethylammonium iodide] + CO
mass density ([1]; m1 = 0.0001): 786.38 ± 0.49 kg/m3
mass density ([1]; m1 = 0.0002): 786.38 ± 0.49 kg/m3
mass density ([1]; m1 = 0.00354): 786.54 ± 0.49 kg/m3
mass density ([1]; m1 = 0.003541): 786.54 ± 0.49 kg/m3
mass density ([1]; m1 = 0.003542): 786.54 ± 0.49 kg/m3
mass density ([1]; m1 = 0.007079): 786.69 ± 0.49 kg/m3
mass density ([1]; m1 = 0.00708): 786.69 ± 0.49 kg/m3
mass density ([1]; m1 = 0.007081): 786.69 ± 0.49 kg/m3
mass density ([1]; m1 = 0.01062): 786.85 ± 0.49 kg/m3
mass density ([1]; m1 = 0.01063): 786.85 ± 0.49 kg/m3
mass density ([1]; m1 = 0.01416): 787 ± 0.49 kg/m3
mass density ([1]; m1 = 0.01417): 787 ± 0.49 kg/m3
mass density ([1]; m1 = 0.0176): 787.17 ± 0.49 kg/m3 and 787.18 ± 0.49 kg/m3
mass density ([1]; m1 = 0.02124): 787.31 ± 0.49 kg/m3
mass density ([1]; m1 = 0.02832): 787.63 ± 0.49 kg/m3 and 787.62 ± 0.49 kg/m3

mass density ([1]; m2 = 0): 776.01 ± 0.6 kg/m3
SMILES: CC#N [acetonitrile] + CC[N+](CC)(CC)CC.[I-]

mass density [2]: 786.38 ± 0.49 kg/m3
SMILES: CO [methanol]

SMILES: O=[N+]([O-])c1ccccc1 [nitrobenzene]
mass density [2]: 1198.91 ± 0.72 kg/m3

SMILES: CC#N [acetonitrile]
mass density [2]: 776.01 ± 0.6 kg/m3 and 776.02 ± 0.59 kg/m3
